Data taken from US20250296920A1, “FORMULATIONS COMPRISING N-SUBSTITUTED-DIOXOCYCLOBUTENYLAMINO-3-HYDROXY-PICOLINAMIDE COMPOUNDS AND USES THEREOF” (Pfizer Inc., priority 2024, published 2025).

How the values were obtained:
CCR6 = molecular target: T1, CCR6 (Homo sapiens, UniProt P51684); test: CCR6+ T cell chemotaxis assay; assay type: cell-based
T1 construct: Human CD4+CCR6+CXCR3-T cells were isolated from leukopak from healthy donors; endogenous in cells
T1 sequence (P51684 1-374): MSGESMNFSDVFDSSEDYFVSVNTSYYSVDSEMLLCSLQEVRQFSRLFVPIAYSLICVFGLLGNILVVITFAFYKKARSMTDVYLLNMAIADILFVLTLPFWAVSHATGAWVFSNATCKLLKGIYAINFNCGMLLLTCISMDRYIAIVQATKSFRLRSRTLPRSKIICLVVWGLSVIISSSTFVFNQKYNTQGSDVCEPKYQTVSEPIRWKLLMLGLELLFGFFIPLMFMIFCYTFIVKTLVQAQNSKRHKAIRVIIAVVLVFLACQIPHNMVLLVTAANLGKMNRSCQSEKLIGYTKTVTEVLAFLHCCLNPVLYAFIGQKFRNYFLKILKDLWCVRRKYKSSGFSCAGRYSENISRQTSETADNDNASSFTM
Text: Human CD4+CCR6+CXCR3-T cells were isolated from leukopak from healthy donors using EasySep™ Human Th17 Cell Enrichment Kit. […] Day 4 post activation, Dynabeads were removed from the culture. The activated T cells were maintained at 1-2×10^6 cells/mL for 15 days by feeding fresh growth media when needed.
For IC50 determination, the top and bottom of the chemotaxis chamber contained the same concentration of compound. DMSO was kept constant at 0.1% (v/v) in all wells. The final concentration of CCL20 (Peprotech 300-29A) in the bottom chamber is 0.5 nM. The fully assembled chemotaxis plate was placed in a cell culture incubator at 37° C., 5% CO2 for 1 h. After incubation, the top filter was removed, followed by a quick freeze of the bottom chamber at −80° C. for 1 h. The migrated cells in the bottom chamber were stained with CyQUANT dye (Life Technologies, C7026) for cell number determination.
IC50 values for compounds of the present invention (Table 1a) were determined by the non-linear regression analysis of dose response curves.

CXCR2 = molecular target: T2, CXCR2 (Homo sapiens, UniProt P25025); test: Human neutrophil chemotaxis assay; assay type: cell-based; conditions: R = H; read-out: CXCR2 Neutrophil, GRO[…] Chemotaxis IC50
T2 construct: Human neutrophils were purified from freshly drawn human whole blood; endogenous in cells; host or cells: primary human neutrophils from freshly drawn whole blood
T2 sequence (P25025 1-360): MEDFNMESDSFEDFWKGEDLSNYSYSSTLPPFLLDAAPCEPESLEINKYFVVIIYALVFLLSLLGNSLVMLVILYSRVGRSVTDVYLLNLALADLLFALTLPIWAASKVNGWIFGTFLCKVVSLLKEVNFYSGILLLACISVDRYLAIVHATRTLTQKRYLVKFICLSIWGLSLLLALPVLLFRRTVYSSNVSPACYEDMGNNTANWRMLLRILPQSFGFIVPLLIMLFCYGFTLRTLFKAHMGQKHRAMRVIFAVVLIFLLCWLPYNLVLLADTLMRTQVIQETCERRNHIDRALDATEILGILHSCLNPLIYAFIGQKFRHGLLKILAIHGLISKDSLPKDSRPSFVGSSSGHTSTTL
Procedure: After 30 min, the labeled neutrophils were washed twice in chemotaxis buffer, resuspended as before and used immediately. For the assay, test compounds were tested in a dose-response format to determine IC50. Labeled neutrophils (50 μL) were pre-incubated with diluted test compound (50 μL) for 30 min in a 96-well plate (Greiner). Next, 100 μL of diluted compound was mixed with 100 μL of GROα (Peprotech #300-11, 2 nM) in the bottom portion of the chemotaxis chamber.
The top portion (insert) of the chemotaxis system containing the FluoroBlok porous membrane was then assembled together. 50 μL of the pre-incubated neutrophils were added to the FluoroBlok insert (top portion) and chemotaxis measured by the neutrophils ability to migrate through the membrane towards the specific CXCR2 ligand, GROα.

## Cc1cn(C)nc1[C@H](Nc1c(Nc2ccnc(C(=O)N(C)C)c2O)c(=O)c1=O)C1(C)CC1 [Example 20, (R)-4-((2-(((1,4-Dimethyl-1H-pyrazol-3-yl)(1-methylcyclopropyl)methyl)amino)-3,4-dioxocyclobut-1-en-1-yl)amino)-3-hydroxy-N,N-dimethylpicolinamide]
CCR6; T cell chemotaxis compared to neutrophil chemotaxis
  T Cell Chemotaxis Selectivity: NS** (Not selective for T cell chemotaxis compared to neutrophil chemotaxis)

## CN(C)C(=O)c1nccc(Nc2c(N[C@@H](c3ccn(C)n3)C3(C)CCCC3)c(=O)c2=O)c1O [drawing 157 (R = H)]
CCR6; R = H, read-out: CCR6 T cell, CCL20 Chemotaxis IC50
  IC50: 19.2 nM
CXCR2
  IC50: 42.1 nM

## Cc1nc([C@H](Nc2c(Nc3ccnc(C(=O)N(C)C)c3O)c(=O)c2=O)C2(C)CCCC2)co1 [drawing 159 (R = H)]
CCR6; R = H
  T Cell Chemotaxis Selectivity: NS* (Not selective for T cell chemotaxis compared to neutrophil chemotaxis)
